Where two headings read alike, the source gives them in different places.
What was measured:
[1] = Determination of plasma concentrations after oral dosing; format: in vivo; conditions: rat, male Wistar rats, orally dosed 10 mg/kg, read-out: Plasma c; for concentration at 0.5 h: t = 30 min; for concentration at 5 h: t = 5 h
Description: Male Wistar rats (220-280 g) were orally dosed (10 mg/kg) with test compounds. Control animals received the vehicle only. Blood samples were drawn from the tail artery 0.5 and 5 hours after the treatment and collected into pre-cooled Li-heparinized tubes. The plasma was separated by centrifugation (11000 g, 5 min) and stored at -80° C. until analysis.
The analytes were extracted from 200 μl of acidified plasma (100 μl of 1 M HCI) with 5 ml of ethyl acetate. The organic phase (4 ml) was evaporated to dryness under a stream of nitrogen at 40° C. The residue was redissolved in 200 μl of dimethylsulphoxide and 30 μl of it was analyzed by HPLC with amperometric detection. The electrode potential was +700 mV.

S-COMT enzyme = molecular target: T1, S-COMT enzyme (Homo sapiens, UniProt P21964); experiment: Determination of IC50 values, COMT inhibition (dopamine methylation, HPLC); format: biochemical; conditions: S-COMT enzyme (about 30 nM), 0.05 mM AdoMet, 3 mM dopamine, 5 min preincubation, 15 min at 37° C., pH 7.4
T1 sequence (P21964 1-221 isoform P21964-2): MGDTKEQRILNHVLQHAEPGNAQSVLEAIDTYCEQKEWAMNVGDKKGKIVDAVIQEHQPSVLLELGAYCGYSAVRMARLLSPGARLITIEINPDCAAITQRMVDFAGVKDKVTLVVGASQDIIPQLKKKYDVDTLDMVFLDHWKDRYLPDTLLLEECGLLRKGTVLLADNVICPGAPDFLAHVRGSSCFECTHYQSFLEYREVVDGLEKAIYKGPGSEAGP
Description: The studied inhibitors were first dissolved into 0.1 M NaOH solution and then diluted with distilled water to 0.5 mM inhibitor concentration. From this stock solution the inhibitor concentrations were adjusted by diluting the desired amounts of stock solution with 0.05 M phosphate buffer, pH 7.4. The studied sample solutions were prepared into the Eppendorf tubes. The final concentrations of the studied samples were; -100 mM phosphate buffer, 5 mM MgCl2, 0.05 mM AdoMet, S-COMT enzyme (about 30 nM) and the inhibitor.
The samples were mixed with Vortex, and incubated for 5 min at 37° C. The reactions were initiated with 3 mM dopamine and carried on for 15 min at 37° C. The reactions were stopped with 4 M perchloric acid and stabilized afterwards for 10 min in ice bath. The sample solutions were centrifuged for 10 min, and the methylated products, 3-methyldopamineand 4-methyidopamine, were analysed with HPLC.

Structure (SMILES)	IC50 (S-COMT enzyme) [nM]	further results
O=C(O)CCc1c([N+](=O)[O-])cc(O)c(O)c1[N+](=O)[O-] [Example 11, 3-(3,4-DIHYDROXY-2,6-DINITROPHENYL)-PROPANOIC ACID]	30	concentration at 0.5 h ([1]; in vivo): 2100 ng/mL; concentration at 5 h ([1]; in vivo): 490 ng/mL
CC(=O)C(=Cc1cc(O)c(O)c([N+](=O)[O-])c1)C(C)=O [Comparison compound 2, 2[(3,4-dihydroxy-5-nitrophenyl)methylene]-2,4-pentanedione, reference compound]		concentration at 0.5 h ([1]; plasma): 530 ng/mL; concentration at 5 h ([1]; plasma): < 25 ng/mL
O=C(O)CCCCc1c([N+](=O)[O-])cc(O)c(O)c1[N+](=O)[O-] [Example 13, 5-(3,4-DIHYDROXY-2,6-DINITROPHENYL)-PENTANOIC ACID]	20	
O=Cc1cc(O)c(O)c(C=O)c1CCC(=O)O [Example 15, 3-(2,6-DIFORMYL-3,4-DIHYDROXYPHENYL)PROPANOIC ACID]	60	
O=Cc1cc(O)c(O)c(C=O)c1CCCCC(=O)O [Example 14, 5-(2.6-DIFORMYL-3,4-DIHYDROXYPHENYL)PENTANOIC ACID]	30	

Further lines, with some results ahead:

IC50 (S-COMT enzyme) [nM]	Structure (SMILES)	further results
20	N#Cc1cc(O)c(O)c(C#N)c1CCC(=O)O [Example 17, 3-(2,6-DICYANO-3,4-DIHYDROXYPHENYL)PROPANOIC ACID]	
15	N#Cc1cc(O)c(O)c(C#N)c1CCCCC(=O)O [Example 16, 5-(3,4-DIHYDROXY-2,6-DICYANOPHENYL)PENTANOIC ACID]	concentration at 0.5 h ([1]; plasma): 2000 ng/mL; concentration at 5 h ([1]; plasma): 150 ng/mL
